In ChEMBL document CHEMBL5113515, “The Discovery of GSK3640254, a Next-Generation Inhibitor of HIV-1 Maturation” (J Med Chem, 2022):

Columns and labels:
[1] = system: Human immunodeficiency virus 1; assay: Antiviral activity against HIV1 wild type NL (4 to 3) infected in human MT2 cells measured after 4 to 5 days in presence of human serum by dual-luciferase reporter assay; assay type: functional, organism-based; details: mt2
[2] = system: Human immunodeficiency virus 1; assay: Antiviral activity against HIV1 harbouring deltaV370/T371A mutant infected in human MT2 cells measured after 4 to 5 days by dual-luciferase reporter assay; assay type: functional, organism-based; details: mt2
[3] = AUC in rat at 5 mg/kg, po; assay type: ADME, organism-based; parameters: dose 5 mg/kg, route po; details: in vivo
[4] = system: Human immunodeficiency virus 1; assay: Antiviral activity against HIV1 wild type subtype B NL (4 to 3) transfected in human HEK293T cells by dual-luciferase reporter assay; assay type: functional, organism-based; details: Human immunodeficiency virus 1, HEK-293T
[5] = system: Human immunodeficiency virus 1; assay: Antiviral activity against HIV1 wild type subtype C NL (4 to 3) transfected in human HEK293T cells by dual-luciferase reporter assay; assay type: functional, organism-based; details: Human immunodeficiency virus 1, HEK-293T
[6] = system: Human immunodeficiency virus 1; assay: Antiviral activity against HIV1 NL (4 to 3) harbouring V362I mutant transfected in human HEK293T cells by dual-luciferase reporter assay; assay type: functional, organism-based; details: Human immunodeficiency virus 1, HEK-293T
[7] = Half life in overnight fasted Sprague-Dawley rat at 1 mg/kg, iv; assay type: ADME, organism-based; details: in vivo
[8] = Half life in overnight fasted Beagle dog at 1 mg/kg, iv; assay type: ADME, organism-based, Canis lupus familiaris; details: in vivo
[9] = Half life in overnight fasted cynomolgus monkey at 1 mg/kg, iv; assay type: ADME, organism-based, Macaca fascicularis; details: in vivo
[10] = Volume of distribution at steady state in overnight fasted mouse at 5 mg/kg, po or 1 mg/kg, iv; assay type: ADME, organism-based; details: in vivo
[11] = Volume of distribution at steady state in overnight fasted Sprague-Dawley rat at 5 mg/kg, po or 1 mg/kg, iv; assay type: ADME, organism-based; details: in vivo
[12] = Volume of distribution at steady state in overnight fasted cynomolgus monkey at 2 mg/kg, po or 1 mg/kg, iv; assay type: ADME, organism-based, Macaca fascicularis; details: in vivo
[13] = Oral bioavailability in overnight fasted Beagle dog using spray-dried dispersion at 2 mg/kg; assay type: ADME, organism-based, Canis lupus familiaris; details: in vivo
[14] = Oral bioavailability in overnight fasted cynomolgus monkey using spray-dried dispersion at 2 mg/kg; assay type: ADME, organism-based, Macaca fascicularis; details: in vivo
[15] = AUC(0 to t) in overnight fasted mouse at 5 mg/kg, po or 1 mg/kg, iv; assay type: ADME, organism-based; parameters: dose 5 mg/kg, route po; details: in vivo
[16] = AUC(0 to t) in overnight fasted Beagle dog at 2 mg/kg, po or 1 mg/kg, iv; assay type: ADME, organism-based, Canis lupus familiaris; parameters: dose 2 mg/kg, route po; details: in vivo
[17] = AUC(0 to t) in overnight fasted cynomolgus monkey at 2 mg/kg, po or 1 mg/kg, iv; assay type: ADME, organism-based, Macaca fascicularis; parameters: dose 2 mg/kg, route po; details: in vivo
[18] = Cmax in overnight fasted mouse at 5 mg/kg, po or 1 mg/kg, iv; assay type: ADME, organism-based; parameters: dose 5 mg/kg, route po; details: in vivo
[19] = Cmax in overnight fasted Beagle dog at 2 mg/kg, po or 1 mg/kg, iv; assay type: ADME, organism-based, Canis lupus familiaris; parameters: dose 2 mg/kg, route po; details: in vivo
[20] = Cmax in overnight fasted cynomolgus monkey at 2 mg/kg, po or 1 mg/kg, iv; assay type: ADME, organism-based, Macaca fascicularis; parameters: dose 2 mg/kg, route po; details: in vivo
[21] = Plasma protein binding in human by ultracentrifugation; assay type: ADME, cell-free; details: read-out: PPB (converted)
[22] = Metabolic stability in human liver microsomes assessed as half life in presence of NADPH at 0.5 uM by LC-MS/MS analysis; assay type: ADME, Microsome
[23] = Metabolic stability in dog liver microsomes assessed as half life in presence of NADPH at 0.5 uM by LC-MS/MS analysis; assay type: ADME, Canis lupus familiaris, Microsome
[24] = Metabolic stability in rat liver microsomes assessed as half life in presence of NADPH at 0.5 uM by LC-MS/MS analysis; assay type: ADME, Microsome
[25] = Metabolic stability in cynomolgus monkey liver microsomes assessed as half life in presence of NADPH at 0.5 uM by LC-MS/MS analysis; assay type: ADME, Macaca fascicularis, Microsome
Cytochrome P450 2B6 = target: T1, Cytochrome P450 2B6 (Homo sapiens, UniProt P20813); assay: Inhibition of CYP2B6 (unknown origin); assay type: ADME
T1 sequence (P20813 whole entry): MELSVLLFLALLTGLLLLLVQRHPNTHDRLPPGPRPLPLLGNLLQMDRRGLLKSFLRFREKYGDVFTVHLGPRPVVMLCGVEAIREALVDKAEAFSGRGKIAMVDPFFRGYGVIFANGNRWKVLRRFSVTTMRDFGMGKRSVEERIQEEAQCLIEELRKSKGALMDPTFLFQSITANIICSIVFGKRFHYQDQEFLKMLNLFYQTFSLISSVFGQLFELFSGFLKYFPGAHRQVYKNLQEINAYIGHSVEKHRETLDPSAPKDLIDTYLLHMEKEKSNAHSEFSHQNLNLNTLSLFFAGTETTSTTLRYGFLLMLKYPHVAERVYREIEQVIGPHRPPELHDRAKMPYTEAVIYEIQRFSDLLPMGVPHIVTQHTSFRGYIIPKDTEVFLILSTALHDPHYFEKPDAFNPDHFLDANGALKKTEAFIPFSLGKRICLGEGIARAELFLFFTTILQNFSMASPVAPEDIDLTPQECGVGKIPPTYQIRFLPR

Cytochrome P450 2C9 = Cytochrome P450 2C9 (Homo sapiens, UniProt P11712); assay: Inhibition of CYP2C9 (unknown origin); assay type: ADME
Chain of Cytochrome P450 2C9 (P11712 whole entry): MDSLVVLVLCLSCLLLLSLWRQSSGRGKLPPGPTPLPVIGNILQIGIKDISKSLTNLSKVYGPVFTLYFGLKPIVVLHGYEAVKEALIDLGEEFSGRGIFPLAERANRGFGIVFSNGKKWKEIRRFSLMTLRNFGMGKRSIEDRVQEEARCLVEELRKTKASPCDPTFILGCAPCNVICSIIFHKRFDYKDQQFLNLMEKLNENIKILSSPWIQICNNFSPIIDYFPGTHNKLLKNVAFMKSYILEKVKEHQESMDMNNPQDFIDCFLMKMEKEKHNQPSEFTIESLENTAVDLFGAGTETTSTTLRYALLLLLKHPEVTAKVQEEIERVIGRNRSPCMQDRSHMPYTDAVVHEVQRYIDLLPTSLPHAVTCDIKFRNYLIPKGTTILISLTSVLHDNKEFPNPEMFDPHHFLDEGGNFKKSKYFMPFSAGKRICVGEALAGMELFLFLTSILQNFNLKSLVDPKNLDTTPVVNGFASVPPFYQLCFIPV

[26] = Lipophilicity, log D of the compound at pH 6.5; assay type: physicochemical; details: buffer
CYP1A2 = target: T2, CYP1A2 (Homo sapiens, UniProt P05177); assay: Induction of CYP1A2 in human hepatocyte; assay type: ADME, cell-based; details: hepatocytes
T2 sequence (P05177 whole entry): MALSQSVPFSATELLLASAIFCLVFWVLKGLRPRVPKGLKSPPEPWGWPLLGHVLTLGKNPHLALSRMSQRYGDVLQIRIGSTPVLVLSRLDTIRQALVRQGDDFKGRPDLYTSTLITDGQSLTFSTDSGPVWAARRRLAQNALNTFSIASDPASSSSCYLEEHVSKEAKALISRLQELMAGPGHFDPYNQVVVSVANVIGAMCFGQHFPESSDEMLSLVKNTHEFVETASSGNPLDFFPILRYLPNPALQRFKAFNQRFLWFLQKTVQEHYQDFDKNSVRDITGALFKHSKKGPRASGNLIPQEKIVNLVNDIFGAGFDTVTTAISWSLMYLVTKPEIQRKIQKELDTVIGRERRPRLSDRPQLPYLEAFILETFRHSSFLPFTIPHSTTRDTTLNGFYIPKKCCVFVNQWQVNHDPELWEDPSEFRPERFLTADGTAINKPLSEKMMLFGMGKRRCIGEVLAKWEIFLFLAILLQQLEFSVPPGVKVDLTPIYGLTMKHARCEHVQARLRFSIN

CYP2B6 = target: T3, CYP2B6 (Homo sapiens, UniProt P20813); assay: Induction of CYP2B6 in human hepatocyte; assay type: ADME, cell-based; details: hepatocytes
T3 sequence (P20813 whole entry): T1 sequence (P20813 whole entry)

CYP3A4 = CYP3A4 (Homo sapiens, UniProt P08684); assay: Induction of CYP3A4 in human hepatocyte; assay type: ADME, cell-based; details: hepatocytes
Chain of CYP3A4 (P08684 whole entry): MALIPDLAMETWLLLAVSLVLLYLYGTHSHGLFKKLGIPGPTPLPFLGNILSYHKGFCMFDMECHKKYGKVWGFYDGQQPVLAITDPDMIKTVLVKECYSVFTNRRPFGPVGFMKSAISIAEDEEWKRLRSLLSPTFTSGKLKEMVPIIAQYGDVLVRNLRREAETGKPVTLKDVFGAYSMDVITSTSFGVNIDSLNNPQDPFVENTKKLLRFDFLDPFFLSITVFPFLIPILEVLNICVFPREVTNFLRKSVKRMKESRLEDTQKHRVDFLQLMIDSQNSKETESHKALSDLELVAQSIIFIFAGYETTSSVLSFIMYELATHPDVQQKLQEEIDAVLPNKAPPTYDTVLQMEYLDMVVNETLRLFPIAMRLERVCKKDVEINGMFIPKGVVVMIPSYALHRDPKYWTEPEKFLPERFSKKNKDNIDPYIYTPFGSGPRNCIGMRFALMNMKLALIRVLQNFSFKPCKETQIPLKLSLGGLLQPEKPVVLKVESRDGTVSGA

[27] = Drug concentration in overnight fasted mouse plasma at 5 mg/kg, po or 1 mg/kg, iv measured after 24 hrs; assay type: ADME, organism-based
[28] = Drug concentration in overnight fasted Beagle dog plasma at 2 mg/kg, po or 1 mg/kg, iv measured after 24 hrs; assay type: ADME, organism-based, Canis lupus familiaris
[29] = Drug concentration in overnight fasted cynomolgus monkey plasma at 2 mg/kg, po or 1 mg/kg, iv measured after 24 hrs; assay type: ADME, organism-based, Macaca fascicularis

Compound: C=C(C)[C@@H]1CC[C@]2(NCCN3CCS(=O)(=O)CC3)CC[C@]3(C)[C@H](CC[C@@H]4[C@@]5(C)CC=C(C6=CC[C@@](CF)(C(=O)O)CC6)C(C)(C)[C@@H]5CC[C@]43C)[C@@H]12 [FIPRAVIRIMAT]
- EC50 [1]: 13.9 nM
- EC50 [2]: 3.6 nM
- AUC [3]: 7.368 µM·h
- EC50 [4]: 1.9 nM
- EC50 [5]: 1.2 nM
- EC50 [6]: 2.7 nM
- half-life [7]: 4 h
- half-life [8]: 18.7 h
- half-life [9]: 5.3 h
- Vdss [10]: 1 L/kg
- Vdss [11]: 1.8 L/kg
- Vdss [12]: 0.43 L/kg
- F [13]: 117%
- bioavailability [14]: 28%
- AUC(0-t) [15]: 29.9 µM·h
- AUCt [16]: 4.3 µM·h
- AUC(0-t) [17]: 7.6 µM·h
- Cmax [18]: 2.7 µM
- Cmax [19]: 4.3 µM
- Cmax [20]: 0.8 µM
- fraction unbound [21]: 0.14
- half-life at 0.5 µM [22]: > 2 h
- half-life at 0.5 µM [23]: > 2 h
- half-life at 0.5 µM [24]: 1.5 h
- half-life at 0.5 µM [25]: 0.467 h
- IC50 (Cytochrome P450 2B6): > 13300 nM
- IC50 (Cytochrome P450 2C9): > 13300 nM
- logD [26]: 4.9
- EC50 (CYP1A2): > 5000 nM
- EC50 (CYP2B6): > 5000 nM
- EC50 (CYP3A4): > 5000 nM
- concentration at 24 h [27]: 0.179 µM
- concentration at 24 h [28]: 1.64 µM
- concentration at 24 h [29]: 0.068 µM
